Reference: patent US20110142837A1, “Method Of Treating Acute Respiratory Distress Syndrome” (TRUSTEES OF THE UNIVERSITY OF PENNSYLVANIA, priority 2007, published 2011)
Blank lines part the entries; values can stand above or below the compound they belong to.

Legend:
[1] = test system: neutrophils from healthy individuals incubated with BAL fluid from ARDS patients; experiment: mPT of supernatants from healthy neutrophils stimulated with ARDS BAL fluid, inhibition studies; type: cell-based, human
Procedure: Isolation of peripheral blood neutrophils: Circulating leukocytes from all ARDS patients and from 4 healthy donors were immediately isolated from EDTA-treated peripheral blood. Peripheral blood neutrophils were separated by Histopaque-double gradient density centrifugation. The absolute number of neutrophils was adjusted to 2-3×10^6 cells/ml in PBS. Approximately one-quarter (˜6-8×10^5 cells in 250 μl PBS) was used for each stimulation or inhibition reaction. Cell purity (>98%), viability by trypan blue exclusion (>97%), and platelet contamination (<2 platelets/100 neutrophils) were assessed in all experiments.
Modified prothrombin time (mPT) assay: The supernatants from neutrophils that had been incubated with BALF supernatants or/and various agents were isolated by centrifugation at 1000×g for 10 minutes; the supernatants from these neutrophil preparations were checked a second time to confirm the absence of contaminating cells or platelets. The coagulation activities (TF/FVIIa binding activity) of the cell supernatants were determined using a modified prothrombin time (mPT) assay as previously described (18). After performing the “classic” prothrombin time (PT) test (100 microliter (μl) platelet poor plasma (PPP) plus 200 μl thromboplastin ISI 1.9 (Instrumentation Laboratory, Milan, Italy), the modified PT analysis was carried out. Namely, 120 μl of cell or BALF supernatant and 80 μl thromboplastin were added to 100 μl of PPP to measure the changes in PT. As a control for modified PT assays, 120 μl of PBS was used instead of cell supernatant, and the in vitro clotting time usually ranged from 31 seconds to 34 seconds.
(§1) Stimulation and inhibition studies: Neutrophils from healthy individuals were incubated for 120 minutes at 37° C. in PBS containing various stimulatory or inhibitory substances, in a total volume of 250 μl. Neutrophils were incubated with: 1) serum (50 μl) from healthy individuals; 2) serum (50 μl) from patients suffering from ARDS; 3) BAL fluid (40 μl) from ARDS patients; 4) BAL fluid from ARDS patients, together with normal neutrophils that had been pretreated for 30 minutes with the C5aR antagonist AcF-[OpdChaWR] (5 μM final concentration); 5) BAL fluid from patients with ARDS, together with normal neutrophils that had been preincubated for 30 minutes with the C3aR antagonist […], 10 μM final concentration); 6) BAL fluid from ARDS patients pretreated for 30 minutes with Humira® (Abbot Laboratories, Abbott Park, Ill.; anti-TNF monoclonal antibody, 0.4 μg/μl final concentration), together with normal neutrophils; or 7) BAL fluid from ARDS patients, together with normal neutrophils pretreated for 30 minutes with anti-IL-6 Mab (10 μg/ml final concentration).
In the complement cascade, cleavage of C3 produces C3a and C3b. C3b contributes to the formation of enzymatic assemblies that in turn catalyze the formation of C5a from C5. The following experiment was designed to test whether inhibition of C3 cleavage, which reduces the amount of C5a formed, is effective in reducing TF expression. Modified PT assays were carried out essentially as described above using neutrophils obtained from healthy individuals and incubating them with BAL fluid from patients with ARDS. The BAL fluid from the seven patients was tested individually.

[2] = target: TNF-alpha in BALF from ARDS patients (human) (UniProt P01375); experiment: cell-based or functional assay
UniProt P01375, sequence (P01375 77-233 limits assumed): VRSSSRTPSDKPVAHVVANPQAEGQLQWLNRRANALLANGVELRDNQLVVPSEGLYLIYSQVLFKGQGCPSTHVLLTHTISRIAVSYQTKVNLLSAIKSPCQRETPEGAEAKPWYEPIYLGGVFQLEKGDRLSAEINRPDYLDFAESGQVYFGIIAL

[3] = test system: TF expression in neutrophils; experiment: TF expression in BALF-stimulated healthy neutrophils (APAAP immunostaining, FACS, western blot); type: cell-based, human; conditions: FIGS. 4B, C and D; healthy neutrophils + 40 μl ARDS BALF
Procedure: as §1
Alkaline-Phosphatase anti-Alkaline-Phosphatase (APAAP) Immunostaining: Smears of cells (BALF pellet and peripheral blood-isolated neutrophils, before and after stimulation and/or inhibition studies) were stored at −20° C. prior to use. […]

[4] = target: C5a receptor (C5aR) on neutrophils from healthy individuals (human) (UniProt P21730); experiment: cell-based or functional assay
UniProt P21730, sequence (P21730 whole entry): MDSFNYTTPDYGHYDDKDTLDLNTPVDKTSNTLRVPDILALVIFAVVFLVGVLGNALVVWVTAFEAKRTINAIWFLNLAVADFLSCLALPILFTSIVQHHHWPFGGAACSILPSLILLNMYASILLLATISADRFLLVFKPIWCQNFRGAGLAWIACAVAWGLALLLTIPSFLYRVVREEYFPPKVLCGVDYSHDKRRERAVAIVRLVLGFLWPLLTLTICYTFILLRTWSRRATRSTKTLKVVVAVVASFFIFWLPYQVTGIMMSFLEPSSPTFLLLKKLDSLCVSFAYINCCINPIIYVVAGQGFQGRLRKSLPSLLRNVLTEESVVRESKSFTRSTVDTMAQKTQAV

Compound: NC(N)=NCCC[C@H](NC(=O)COCC(c1ccccc1)c1ccccc1)C(=O)O [SB-290152]
- influence on mPT values of supernatants from BALF-stimulated neutrophils ([1]; SB-290152 10 μM, anti-IL-6 Mab 10 μg/ml, 30 minutes pretreatment): did not influence the mPT values

- modified prothrombin time (mPT) of supernatants from healthy neutrophils stimulated with BALF pretreated with anti-TNF antibody [2]: 30.4 s
Compound: Humira (Abbott Laboratories; anti-TNF monoclonal antibody)

Compound: Acetyl-Phe-[Orn-Pro-D-cyclohexylalanine-Trp-Arg] [PMX-53]
- TF expression in BALF-stimulated neutrophils after blockade (immunohistochemical, flow cytometry, western blot) [3]: loss of TF expression
- mPT of supernatants from BALF-stimulated healthy neutrophils after blockade of signaling ([1]; 40 μl ARDS BALF, 30 minutes pretreatment, C5aR antagonist 5 μM, Humira 0.4 μg/μl, BALF without inhibitor 24.13±1.31 sec, ARDS serum control 29.69±1.64 sec, p<0.001, FIG. 4A): 31.91 ± 0.64 s

- modified prothrombin time (mPT) of supernatants from BALF-stimulated healthy neutrophils pretreated with C5aR antagonist [4]: 31.9 s
Compound: AcF-[OPdChaWR] (acetyl-Phe-[Orn-Pro-D-cyclohexylalanine-Trp-Arg]; PMX-53) (peptide)

Compound: CC[C@H](C)[C@H](N)C(=O)N[C@H]1CSSC[C@@H](C(=O)N[C@H](C(N)=O)[C@@H](C)O)NC(=O)[C@H](CCCN=C(N)N)NC(=O)[C@H](Cc2cnc[nH]2)NC(=O)[C@H](Cc2cnc[nH]2)NC(=O)CNC(=O)[C@H](Cc2c[nH]c3ccccc23)NC(=O)[C@H](CC(=O)O)NC(=O)[C@H](CCC(N)=O)NC(=O)[C@H](C(C)C)NC(=O)[C@H](C(C)C)NC1=O [compstatin, Ile-Cys-Val-Val-Gln-Asp-Trp-Gly-His-His-Arg-Cys-Thr]
- mPT, healthy neutrophils + BALF incubated with compstatin, group b ([1]; 3 ARDS cases (group b), FIG. 6, column 5, P=ns compared to BALF alone 24.13±1.31): 24.57±0.55
- mPT, healthy neutrophils + BALF preincubated with compstatin, group a ([1]; 4 ARDS cases (group a), FIG. 6, column 4, p<0.001 compared to BALF alone 24.13±1.31, PBS 32.11±0.58): 27.98±0.71
- effect on procoagulant activity in mPT, Comp b ([1]; group of 3 ARDS patients, FIG. 6): did not significantly reduce the procoagulant activity
- effect on procoagulant activity in mPT, Comp a ([1]; group of 4 ARDS patients, FIG. 6): reduced the procoagulant activity
